{"source": "patent US20090264342A1", "about": "“COMPOSITIONS AND METHODS FOR ANTIBIOTIC POTENTIATION AND DRUG DISCOVERY” (priority 2006, published 2009)", "key": {"S. aureus strain RN4220": {"test_system": "S. aureus strain RN4220", "test": "MIC of Nor for S. aureus RN4220 and RN4220 recA−", "format": "cell-based", "details": "Staphylococcus aureus", "method": "The growth and response to quinolone of S. aureus strain RN4220 (wild type) and its recA^− derivative (RN4220 recA^−) were first examined. These strains have been described in the literature (Bayles et al., 1994). The RN4220 recA null mutant (RN4220 recA^−) contains the recA569 allele and is referred to KB103 in Bayles, et al., 1994. […] MICs were determined as described above.\nFurther details of the assay are as follows: Overnight mutant MG1655 or Staph cultures of clones were grown in 5 mL of LB with appropriate selective agents at 37° C. with shaking. A morning culture was started in a 96 well plate with 16 μL of cells into 1.6 mL of LB and the appropriate plasmid selective agent. […] Serial dilutions were done with 100 μL of drug into 100 μL of H2O. […] 20 μL of each log phase culture was put into a well of one row of a 96 well plate containing […] of LB and the appropriate selective agent. 4.5 μL of each drug concentration was arrayed into the 8 rows of a sterile 300 μL 96-well plate. 250 μL of inoculated culture was added to each column of the sterile 300 μL 96-well plate with drug. The final plate has a different clone in each column and a different Norfloxacin concentration in each row. Plates were grown overnight at 37° C. with shaking. The OD600 of the plate was measured after 16 hours."}, "[1]": {"test_system": "recA promoter (prec::GFP) in MG1655", "test": "Cell-based recA promoter::GFP reporter assay", "set-up": "species or system E. coli", "details": "recA+ bacteria with reporter construct, in the presence of norfloxacin", "source_text": "As discussed above, the recA promoter is induced when RecA becomes activated as a result of exposure to DNA damaging agents. The present Applicants hypothesized that exposure to a quinolone may have a similar effect on the recA promoter and that this effect could be exploited to develop a cell-based assay for inhibitors of RecA. A low copy reporter plasmid was used in which the recA promoter controls transcription of the mRNA encoding green fluorescent protein (GFP). The plasmid, referred to herein as prec::GFP, has been previously described (Ronen, 2002). See also Kuang, 2004. prec::GFP contains 2821707-2821893 of the E. coli MG1655 genome (numbering based on the sequenced E. coli genome as reported in Blattner, F. R., et al., Science, 277, pp. 1453-1474, 1997) cloned upstream of a promoterless GFPmut3 gene in a low copy pSC101 origin plasmid as described (Kalir, S., et al., Science, 292, pp. 2080-2083, 2001).\nThe prec::GFP plasmid was introduced into MG1655 and MG1655 recA null strains and measured the fluorescence emitted by GFP in the presence or absence of quinolone as compared with background fluorescence detected from cultures of MG1655 lacking the plasmid. Briefly cells of these three strains were grown to early log phase in LB at 37° C. with shaking. […] After 60 minutes, fluorescence due to GFP expression from the reporter plasmid was measured using a spectrophotometer."}, "wild type E. coli": {"test_system": "wild type E. coli", "test": "Growth of wild type E. coli in the presence of quinolone (OD600)", "format": "cell-based", "source_text": "Each deletion strain was constructed by replacing the chromosomal copy of the relevant gene in a wild type E. coli strain (K-12) with a selectable antibiotic resistance gene, essentially as described, to create a precise gene deletion (Datsenko, K. A. and Wanner, B. L., “One-step inactivation of chromosomal genes in Escherichia coli K-12 using PCR products”, Proc Natl Acad Sci USA, 97, 6640-6645, […]); Baba, T., Ara, T., Okumura, Y., iki Hasegawa, M., Takai, Y., Baba, M., Oshima, T., Tomita, M., Wanner, B. and Mori, H. (2003) Systematic construction of single gene deletion mutants in Escherichia coli K-12 (in preparation) and see also the web site at ecoli.aist-nara.ac.jp/gb5/Resources/deletion/deletion.html).\nFor each mutant, the ratio of growth of the mutant in the presence of a sublethal concentration of quinolone to growth of the mutant in the absence of quinolone was calculated after 12 hours of growth at 37° C., based on OD600 measurements. […]"}, "[2]": {"test_system": "S. aureus RN4220 and RN4220 recA−", "test": "Survival assay in the RN4220 background after exposure to Nor", "format": "cell-based", "details": "RN4220 recA− vs RN4220, 3 hours of exposure to Nor 0.5 μg/mL", "method": "The survival ability of RN4220 and RN4220 recA^− following exposure to Nor was then tested as described in Example 2 for E. coli strains. The recA null mutant and parental strains (RN4220 recA^− and RN4220, respectively) were grown to early log phase in LB at 37° C. with shaking. At the 0 time point Nor was added to the cultures to a final concentration of 0.5 μg/mL, which is just below the MIC for wild type cells (RN4220). Samples of the cells were collected and washed in PBS at 0, 30, 90 and 180 minutes time points. The number of viable cells was determined by plating the cells on LB from each time point and counting colonies. The CFU counts were normalized based on the time 0 time point inoculum for each culture (i.e., the CFU count obtained from the 0 time point inoculum was taken to represent 100% survival) and the log % survival was plotted (FIG. 5).\nIt was concluded that recA is essential for survival in the presence of quinolones (FIG. 5). As in E. coli, recA deletion causes 10,000× increase in quinolone sensitivity compared to the parental strain after 3 hours of exposure to Nor."}}}
{"smiles": "CCn1cc(C(=O)O)c(=O)c2cc(F)c(N3CCNCC3)cc21", "note": "[Nor, norfloxacin]", "values": [{"measurement": "MIC", "setting": "S. aureus strain RN4220; RN4220, RN4220", "result": 1.53, "unit": "µg/mL"}, {"measurement": "MIC", "setting": "S. aureus strain RN4220; RN4220, RN4220 recA−", "result": 0.38, "unit": "µg/mL"}, {"measurement": "transcription of the recA:GFP reporter gene", "setting": "[1]", "result": "increased transcription of the reporter gene"}, {"measurement": "bacterial growth, % of wild type levels", "setting": "wild type E. coli; 0.05 μg/mL Nor (sublethal concentration)", "result": 80, "unit": "%"}, {"measurement": "concentration that fully inhibits growth of wild type E. coli (lethal concentration)", "setting": "wild type E. coli; wild type E. coli", "result": 0.1, "unit": "µg/mL"}, {"measurement": "increase in quinolone sensitivity caused by recA deletion compared to parental strain", "setting": "[2]", "result": "10,000 ×"}]}
